Assays:
[1] = tested on: P. aeruginosa PA7 (DSM 24068); test: microbe, parasite or virus in culture; assay type: cell-based, Pseudomonas aeruginosa; settings: n = 3, MHB; for MIC P. aeruginosa / EC50: mean ± standard error; for MIC P. aeruginosa / MIC P. aeruginosa (value in brackets): 22 h; for EC50: read-out: EC50 P. aeruginosa
Method in brief: (§1)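 Broth microdilution used 2–8 × 10^5 CFU/mL inocula, with compounds serially diluted 64 to 1 μg/mL and incubated 22 h at 37 °C, read at 600 nm. A. baumannii, K. pneumoniae and P. aeruginosa were grown in MHB pH 7.4; E. faecium was grown in TSY pH 7.0–7.2. MIC and EC50 were obtained by curve fitting from three independent experiments.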

[2] = tested on: K. pneumoniae (DSM 11678, ATCC33495); test: Broth microdilution antibacterial assay; assay type: cell-based, Klebsiella pneumoniae; settings: n = 3, MHB; for MIC K. pneumoniae / EC50: mean ± standard error; for MIC K. pneumoniae / MIC K. pneumoniae (value in brackets): 22 h; for EC50: read-out: EC50 K. pneumoniae
Method in brief: as §1

[3] = tested on: E. faecium (DSM 20477, ATCC 19434); test: Broth microdilution antibacterial assay; assay type: cell-based, Enterococcus faecium; settings: n = 3, TSY; for MIC E. faecium / EC50: mean ± standard error; for MIC E. faecium / MIC E. faecium (value in brackets): 22 h; for EC50: read-out: EC50 E. faecium
Method in brief: as §1

[4] = biological target: T1, glutathione reductase (GR) from baker's yeast (Saccharomyces cerevisiae, UniProt P41921); test: GR inhibition assay (DTNB reduction); assay type: biochemical; settings: ± standard deviation, n = 3, 75 min preincubation
T1 construct: purchased Sigma-Aldrich
T1 sequence (P41921 17-483 limits assumed): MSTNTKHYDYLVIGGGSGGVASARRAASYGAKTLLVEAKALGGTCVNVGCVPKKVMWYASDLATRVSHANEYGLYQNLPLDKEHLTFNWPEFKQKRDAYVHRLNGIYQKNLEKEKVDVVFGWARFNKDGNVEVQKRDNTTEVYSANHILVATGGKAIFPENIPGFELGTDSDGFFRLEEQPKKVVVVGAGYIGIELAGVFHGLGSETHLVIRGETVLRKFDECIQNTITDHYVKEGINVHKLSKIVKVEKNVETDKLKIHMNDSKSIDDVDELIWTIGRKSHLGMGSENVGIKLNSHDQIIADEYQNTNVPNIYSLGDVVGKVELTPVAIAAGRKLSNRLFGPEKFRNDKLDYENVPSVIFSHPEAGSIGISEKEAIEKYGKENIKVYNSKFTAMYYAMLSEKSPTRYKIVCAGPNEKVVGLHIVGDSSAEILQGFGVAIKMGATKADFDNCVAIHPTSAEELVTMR
Method: (§2) The inhibition of purified E. coli thioredoxin reductase (TrxR) and glutathione reductase (GR) from both E. coli and baker’s yeast was determined according to a previously applied procedure.[59],[60]
(§3) The TrxR (E. coli) and GR (baker’s yeast and E. coli) inhibition assays were performed according to previously published procedures.[62],[75] The assays are partly based on the procedure developed by Lu et al.[60] and make use of the reduction of 5,5′-dithiobis(2-nitrobenzoic acid) (DTNB). Solutions of E. coli TrxR (35.4 U/mL) and E. coli thioredoxin (Trx) (156 μg/mL) (both purchased from Sigma-Aldrich) or baker’s yeast GR (0,08 U/mL, Sigma-Aldrich) or E. coli GR (4.2 U/ml, Antibodies online) and GSSG (0.28 mM, Sigma-Aldrich) in distilled water were prepared, as were fresh 2 mM stock solutions of the test compounds in DMSO. Then, solutions with several concentrations of the test compounds in DMSO were prepared, and 35 μL of each solution was diluted with 965 μL of TE buffer (Tris–HCl 50 mM, EDTA 1 mM, pH 7.5). These solutions (20 μL) or TE buffer without the test compounds (20 μL, as control) were mixed with the TrxR or GR solutions (10 μL), the Trx or GSSG solutions (10 μL), and a solution of NADPH (200 μM) in TE buffer (100 μL) in a well on a 96-well plate. As a blank solution, 200 μM NADPH in TE buffer (100 μL) mixed with a DMSO/buffer mixture (40 μL) was used (final concentrations of DMSO: 0.5% v/v). The plate was incubated for 75 min at 25 °C with moderate shaking. After incubation, 100 μL of a reaction mixture (TE buffer containing 200 μM NADPH and 5 mM DTNB) was added to each well to initiate the reaction. After thorough mixing, the formation of 5-TNB was monitored by a microplate reader at 405 nm in 35 s intervals (10 measurements). The values were corrected by subtraction of the blank solution absorption values. The increase in the concentration of 5-TNB followed a linear trend (r^2 ≥ 0.990), and the enzymatic activities were calculated as the gradients (increase in absorbance per second) thereof. […] The inhibition is presented as the mean IC50 values and standard deviations obtained in three independent experiments.

[5] = biological target: T2, glutathione reductase (GR) from E. coli (Escherichia coli, UniProt P06715); test: GR inhibition assay (DTNB reduction); assay type: biochemical; settings: ± standard deviation, n = 3, 75 min preincubation
T2 construct: purchased Antibodies online
T2 sequence (P06715 1-450): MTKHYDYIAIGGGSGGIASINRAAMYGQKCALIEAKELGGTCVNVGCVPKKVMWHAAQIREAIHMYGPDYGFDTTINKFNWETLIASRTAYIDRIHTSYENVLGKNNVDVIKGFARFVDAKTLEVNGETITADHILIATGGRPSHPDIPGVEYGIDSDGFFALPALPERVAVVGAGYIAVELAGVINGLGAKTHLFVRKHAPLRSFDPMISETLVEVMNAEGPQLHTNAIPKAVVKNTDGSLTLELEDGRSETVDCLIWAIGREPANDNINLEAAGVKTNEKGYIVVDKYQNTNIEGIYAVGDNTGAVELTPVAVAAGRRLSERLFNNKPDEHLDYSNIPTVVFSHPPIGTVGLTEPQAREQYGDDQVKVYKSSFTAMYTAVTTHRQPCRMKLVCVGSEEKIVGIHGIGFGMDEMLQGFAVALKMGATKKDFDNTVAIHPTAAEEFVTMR
Method: as §2, §3

[6] = tested on: Caco-2 cells; settings: read-out: Cytotoxicity IC50 Caco-2; 24 h, almost confluent cell layers, highest concentration 100 μM
Method: Besides the antimicrobial effects, the toxic effects of silver ions have to be considered.[10],[12] As a primary evaluation of the cell toxicity triggered by silver NHC complexes, almost confluent cell layers of CaCo-2 cells were grown and challenged for 24 h with the silver complexes and also with the silver reference compounds AgNO3 and SSD (see Figure 6).
Caco-2 cells were grown as almost confluent monolayers in 96-well plates. The complexes were dissolved in wells of 96-well plates as stock solutions in DMSO (0.2% v/v) diluted with DMEM cell culture medium, which was supplemented with 10% fetal calf serum and 50 mg/L gentamicin. The cell layers were incubated with the drug containing media for 24 h at 37 °C/5% CO2 in an incubator. The cell viability was determined using crystal violet (0.02%) staining and was calculated as percentage of an untreated control. Results were obtained in three independent experiments.

[7] = 25 mM in DMSO, dark, 24 h, visual inspection

SMILES	MIC P. aeruginosa [1] [µM]	EC50 [1] [µM]	MIC P. aeruginosa (value in brackets) [1] [µg/mL]	MIC K. pneumoniae [2] [µM]	EC50 [2] [µM]	MIC K. pneumoniae (value in brackets) [2] [µg/mL]	MIC E. faecium [3] [µM]	EC50 [3] [µM]	MIC E. faecium (value in brackets) [3] [µg/mL]	IC50 [4] [nM]	IC50 [5] [nM]	IC50 [6] [µM]	Solution stability (signs of degradation, precipitation, silver colloid) [7]
CC(C)n1[c](=[Ag][Br])n(Cc2ccccn2)c2ccccc21 [3b, Bromido (1-Isopropyl-3-(pyridin-2-ylmethyl)-benzimidazol-2-ylidene) Silver(I)]	60.7 ± 12.1	30 ± 6.9	26	18.2 ± 0.0	8.6 ± 0.2	8	146 ± 0.0	123 ± 0.4	64	41 ± 6	41 ± 7	–	–
COCCn1[c](=[Ag][I])n(Cc2ccccn2)c2ccccc21 [4c, Iodido (1-(2-Methoxyethyl)-3-(pyridin-2-ylmethyl)-benzimidazol-2-ylidene) Silver(I)]	18.6 ± 7.0	4.9 ± 1.2	9	4.0 ± 0.0	2	2	> 128	> 128	> 64	–	–	> 100	did not show clear signs of degradation
CC(C)n1[c](=[Ag][I])n(Cc2ccccn2)c2ccccc21 [3c, Iodido (1-Isopropyl-3-(pyridin-2-ylmethyl)-benzimidazol-2-ylidene) Silver(I)]	11.0 ± 2.7	6 ± 1	5	4.11 ± 0.0	2.3 ± 0.3	2	65.8 ± 0.0	60.9 ± 0.1	32	49 ± 4	39 ± 6	> 100	did not show clear signs of degradation
CC(C)n1[c](=[Ag][Cl])n(Cc2ccccn2)c2ccccc21 [3a, Chlorido (1-Isopropyl-3-(pyridin-2-ylmethyl)-benzimidazol-2-ylidene) Silver(I)]	81.1 ± 0.0	39.1 ± 8.8	32	13.5 ± 3.4	9.8 ± 2.4	5	162 ± 0.0	139 ± 0.4	64	44 ± 4	32 ± 2	–	–
